According to US12227548B2, “Use of IRE1α-XBP1 signaling pathway biomarkers for modulating immune responses” (Dana-Farber Cancer Institute, Inc., priority 2018, dated 2025):

Columns and labels:
[1] = tested on: c-Myc promoter activation in Myc^GFP NK cells; experiment: c-Myc reporter (Myc^GFP) expression in splenic NK cells treated with cytokines; format: cell-based, mouse; conditions: FIG. 9H
Procedure: Genes were clustered by functional annotation. […] Equal numbers of Ly49H^+ NK cells from wild type and knockout donors were co-transferred into recipient Ly49H-deficient mice 1 day before infection. […] Anti-XBP1s Ab was used and IgG was used as mock control. FIG. 9H show the representative flow cytometric plots (left) and quantification of c-Myc reporter expression. Before assessment, splenic NK cells from c-Myc reporter mice (Myc^GFP) were treated with indicated cytokines for 16 hours, either in the presence or absence of the IRE1 inhibitor (IRE1i) 4μ8c. […] Equal numbers of Ly49H^+ NK cells from wild type and Myc^NK donors were co-transferred into recipient Ly49H− deficient mice 1 day before infection. […] One sample t-test performed on FIG. 9J. Two tailed unpaired Student's t-test performed on FIG. 9D and FIG. 9G. Two-way analysis of variance (ANOVA) with the Sidak post-test performed on FIGS. 9E, and 9I. […] Each column in FIG. 9B is a different mouse. Data are representative of three (FIGS. 9C-9E and FIG. 9G) and two independent repeats (FIGS. 9F, 9H, 9I and 9J). Data were independently repeated three (FIGS. 9D and 9H) and two (FIGS. 9G-9J). N equals 3 or 4 mice/group in FIG. 9D and FIG. 9J; n equals 3 technical replicates/group in FIG. 9G; n equals 3 replicates/treatment in ex vivo culture in FIG. 9H; n equals 5 mice/group in FIG. 9I. […]

human primary NK cells = experiment: Metabolic flux assay (oxygen consumption rate) of IL-12 and IL-18 activated human primary NK cells; format: cell-based; conditions: IL-12 and IL-18 for 16 hr, inhibitor 5 μM; FIG. 14C
Procedure: Genes were clustered by functional annotation. c-Myc-regulated genes (Morrish and Hockenbery (2014) Cold Spring Harb. Perspect. Med. 4:a014225) are shown in black text on the right. […] Primary human NK cells isolated from PBMC were incubated with IL-12 and IL-18 for 16 hr, in the presence or absence of the IRE1α inhibitor 4μ8C (5 uM). Approximately 600,000 cells were plated per well, and the data were normalized to total protein quantification. Oligo (Oligomycin, 1 μM), FCCP (carbonyl cyanide-p-(trifluoromethoxy) phenylhydrazone, 1 μM), R (rotenone, 0.5 μM) and A (antimycin, 0.5 μM).
Purified human primary NK cells from healthy PBMC donors were stimulated with human recombinant IL-12 and IL-18 for 16 hr in complete RPMI medium, in the presence or absence of IRE1 inhibitor 4μ8C (5 μM). After incubation, NK cells were collected, thoroughly washed and then subjected to Seahorse analyses using non-buffered XF base medium containing 25 mM glucose, 2 mM L-glutamine, and 1 mM sodium Pyruvate but lacking serum. […] 6×10^5 NK cells were plated and OCR measurements were analyzed on an XFe96 Extracellular Flux Analyzer (Agilent). After basal OCR measurements were obtained, an OCR trace was recorded in response to oligomycin (1 μM), carbonyl cyanide-p-(trifluoromethoxy) phenylhydrazone (FCCP, 1 μM), and rotenone and antimycin (0.5 μM each) following the XF Cell Mito Stress test kit (Agilent). […]

primary human NK cells = experiment: Ex vivo expansion of primary human NK cells with IL-2 and IL-15, CTV dilution; format: cell-based
Procedure: Equal numbers of NK cells from wild-type and IRE1^NK donors were labelled with cell proliferation tracing dye CTV, and then co-transferred into lymphocyte-lacking recipient Rag2-/-Il2rg-/- mice. Flow cytometric evaluation of NK cell expansion and proliferation was performed in the spleen of recipient mice at day 3-5 after transfer. […] IRE1^NK and IRE1^f/f NK cells from littermate animals were pre-labeled with CTV and cultured ex vivo with IL-2 and IL-15 for the indicated number of days. […] Two-way analysis of variance (ANOVA) with the Sidak post-test performed on FIGS. 7B and 7D. Two tailed unpaired Student's t-test performed on FIG. 7C. One-way analysis of variance (ANOVA) with the Tukey post-test performed on FIG. 7G. Two tailed paired Student's t-test performed on FIGS. 7F, 7I and 7J. All error bars show the standard deviation. Data are representative of three (FIGS. 7B and 7C) and two (FIGS. 7D-7E and 7G-7H) independent repeats. Data in FIGS. 7F, 7I and 7J are pooled from two independent repeats. N equals 2 mice/group in FIG. 7B. N equals 4 mice/group in FIGS. 7C, 7G and 7H. N equals 3 mice/group (and technical duplicates for ex vivo culture) in FIGS. 7D and 7E. N equals 6, 5 and 5 PBMC donors in FIGS. 7F, 7I and 7J. Peripheral blood mononuclear cells (PBMCs) from healthy donors (New York Blood Center) were isolated by density gradient centrifugation with Ficoll (GE Healthcare). […]

mouse NK cells = experiment: Ex vivo expansion of mouse NK cells (Myc^OE and littermate control) with IL-2 and IL-15, CTV dilution; format: cell-based; conditions: IL-2 and IL-15 for 3 days, FIG. 15B
Procedure: FIG. 15A-FIG. 15E show the restoration of c-Myc in the absence of IRE1 rescues the NK cell proliferation defect. […] FIG. 15C-FIG. 15E show WT (Myc^fsf/+ IRE1^f/f Ncr1^Cre−), IRE1^NK (Myc^+/+ IRE1^f/f Ncr1^Cre+) Myc^OE (Myc^fsf/+ IRE1^+/+ Ncr1^Cre+) and Myc^OE IRE1^NK (Myc^fsf/+ IRE1^f/f Ncr1^Cre+) NK cells pre-labeled with CTV and cultured ex vivo with IL-2 and IL-15. […] P values are as indicated; ns=not significant. One sample t-test is performed on FIG. 15A. One-way analysis of variance (ANOVA) with the Tukey post-test is performed on FIGS. 15C-15E. All error bars are s.e.m. N=5 mice/group in FIG. 15A, n=2 mice/group in FIG. 15B and n=4 mice/group in FIGS. 15C-15E. […] Experiments in FIGS. 15B-15E were independently repeated three times.
For FIG. 1E, ˜2×10^5 sorted splenic NK cells were stimulated for 16 hr in complete RPMI containing 10% FBS with recombinant mouse IL-2 ([…]; BioLegend), either in the presence or absence of IL-12 (20 ng/ml; Peprotech) and IL-18 (10 ng/ml; R&D Systems). For ex vivo NK cell expansion experiments, 2.5×10^5 sorted NK cells (>97% purity) were stimulated in RPMI supplemented with 10% FBS, penicillin-streptomycin, L-glutamine and β-mercaptoethanol, and with recombinant mouse IL-2 (10 ng/ml; R&D Systems) and IL-15/15R (40 ng/ml; eBioscience) re-applied every other day. […]

[2] = tested on: Chop and IRE1α/XBP1 pathway in NK cells; experiment: Ex vivo incubation of splenic NK cells with tunicamycin, XBP1 splicing assay and qRT-PCR of UPR genes; format: cell-based, mouse; conditions: 4 hours ex vivo incubation, FIG. 3A
Text: The quantitative real time PCR data were presented as relative expression to β-Actin. […] BM NK cells were identified by Lin^−CD122 and splenic NK cells were identified by Lin^−NK1.1^+. Ns indicates “not significant”, * indicates p<0.05, ** indicates p<0.01, *** indicates p<0.001 and **** indicates p<0.0001. Two tailed unpaired Student's t-test performed on FIG. 3A. All error bars show standard deviation. N equals 3 mice/group in FIG. 3A and FIG. 3D. N equals 5 mice/group in FIGS. 3B-3C and FIG. 3F. N equals 10 mice in FIG. 3E. Experiments were independently repeated three (FIGS. 3A-3C and 3E-3F) and two ([…] FIG. 3D) times.
Cells were pre-enriched (Miltenyi Biotec) and then sorted to >95% purity and RNA was isolated using the RNeasy® RNA purification mini (for 5×10^5 cells or beyond) or micro (for <5×10^5 cells) kit (Qiagen) according to the manufacturer's protocol. From purified RNA, cDNA was synthesized using the reverse-transcriptase kit gScript™ cDNA synthesis kit (Quanta Biosciences). Quantitative real time PCR (qRT-PCR) was performed in triplicates in a 384-well plate using Taqman® Probes (Themo Fisher) or SYBR® Green (Quanta Biosciences)-based detection on an ABI QuantStudio™ 6 Flex qRT-PCR machine. For experiments in FIG. 9D, CellDirect™ One-Step qRT-PCR Kit with Rox (Life Technologies) was used according to the manufacturer's instruction. […]

Cc1cc(=O)oc2c(C=O)c(O)ccc12 [4μ8c, 8-formyl-7-hydroxy-4-methylcoumarin]
c-Myc reporter GFP induction under IRE1α blockade ([1]; Myc^GFP NK cells stimulated with IL-15, or IL-12 and IL-18, 16 hours): GFP induction was largely impeded | levels of OXPHOS (basal OCR) (human primary NK cells): significantly decreased levels of OXPHOS | maximal respiration rate (human primary NK cells): reduced maximal respiration rate | proliferation of CD56^bright versus CD56^dim NK cells (primary human NK cells; IL-2 and IL-15, day 6, FIG. 7I): primarily hindered the proliferation of CD56^bright NK cells | proliferation of primary human NK cells (primary human NK cells; cultured in IL-2 and IL-15, 5 μM inhibitor vs DMSO, day 6, FIG. 7F): significant reduction in proliferation | proliferation of NK cells from Myc^OE mice (mouse NK cells; inhibitor 5 μM vs DMSO): proliferated to a comparable extent as in the DMSO-treated control group | proliferation of NK cells from WT littermates (mouse NK cells; inhibitor 5 μM): impaired in proliferation

IL-15: recombinant cytokine IL-15
c-Myc reporter GFP ([1]; Myc^GFP NK cells, 16 hours, in the absence of 4μ8c): c-Myc reporter GFP was induced

tunicamycin
Chop expression [2]: strongly triggered Chop expression | IRE1α/XBP1 pathway [2]: upregulation of the IRE1α/XBP1 pathway
